Measured values taken from US20060069132A1, “Azolecarboxamide herbicides” (priority 2004, published 2006).

Legend:
barnyardgrass [1] = test: Test B pre-/postemergence herbicide test; assay type: in vivo, Echinochloa crus-galli; details: 500 g ai/ha
Description: (§1) Seeds selected from barnyardgrass (Echinochloa crus-galli (L.) Beauv.), Surinam grass (Urochloa decumbens (Staph) R. D. Webster, previously named Brachiaria decumbens Stapf), cocklebur (Xanthium strumarium L.), corn (Zea mays L.), large crabgrass (Digitaria sanguinalis (L.) Scop.), giant foxtail (Setaria faberi Herim.), lambsquarters (Chenopodium album L.), morningglory (Ipomoea coccinea L.), pigweed (Amaranthus retroflexus L.), rice (Oryza sativa L.) and velvetleaf (Abutilon theophrasti Medik.) were planted and treated preemergence with test chemicals formulated in a non-phytotoxic solvent mixture which included a surfactant.
(§2) At the same time, plants selected from these crop and weed species and also blackgrass (Alopecurus myosuroides Huds.), wheat (Triticum aestivum L.) and wild oat (Avena fatua L.) were treated with postemergence applications of test chemicals formulated in the same manner. Plants ranged in height from 2 to 18 cm (1- to 4-leaf stage) for postemergence treatments. Plant species in the flooded paddy test consisted of rice (Oryza sativa L.), small flower umbrella sedge (Cyperus difformis L.), ducksalad (Heteranthera limosa (Sw.) Willd.) and barnyardgrass (Echinochloa crus-galli (L.) Beauv.) grown to the 2-leaf stage for testing. Treated plants and controls were maintained in a greenhouse for 13 to 15 days, after which time all species were compared to controls and visually evaluated. Plant response ratings, summarized in Table B, are based on a scale of 0 to 100 where 0 is no effect and 100 is complete control. A dash (-) response means no test result.

Surinam grass = test: Test B pre-/postemergence herbicide test; assay type: in vivo, Urochloa decumbens; details: 500 g ai/ha
Description: as §1, §2

cocklebur = test: Test B pre-/postemergence herbicide test; assay type: in vivo, Xanthium strumarium; details: 500 g ai/ha
Description: as §1, §2

corn = test: Test B pre-/postemergence herbicide test; assay type: in vivo, Zea mays; details: 500 g ai/ha
Description: as §1, §2

large crabgrass [2] = test: Test B pre-/postemergence herbicide test; assay type: in vivo, Digitaria sanguinalis; details: 500 g ai/ha
Description: as §1, §2

giant foxtail [3] = test: Test B pre-/postemergence herbicide test; assay type: in vivo, Setaria faberi; details: 500 g ai/ha
Description: as §1, §2

lambsquarters = test: Test B pre-/postemergence herbicide test; assay type: in vivo, Chenopodium album; details: 500 g ai/ha
Description: as §1, §2

morningglory [4] = test: Test B pre-/postemergence herbicide test; assay type: in vivo, Ipomoea coccinea; details: 500 g ai/ha
Description: as §1, §2

pigweed = test: Test B pre-/postemergence herbicide test; assay type: in vivo, Amaranthus retroflexus; details: 500 g ai/ha
Description: as §1, §2

velvetleaf [5] = test: Test B pre-/postemergence herbicide test; assay type: in vivo, Abutilon theophrasti; details: 500 g ai/ha
Description: as §1, §2

blackgrass = test: Test B postemergence herbicide test; assay type: in vivo, Alopecurus myosuroides; details: Postemergence, 500 g ai/ha; visual rating after 13 to 15 days, scale 0 (no effect) to 100 (complete control)
Procedure: as §2

wheat = test: Test B postemergence herbicide test; assay type: in vivo, Triticum aestivum; details: Postemergence, 500 g ai/ha; visual rating after 13 to 15 days, scale 0 (no effect) to 100 (complete control)
Procedure: as §2

wild oat = test: Test B postemergence herbicide test; assay type: in vivo, Avena fatua; details: Postemergence, 500 g ai/ha; visual rating after 13 to 15 days, scale 0 (no effect) to 100 (complete control)
Procedure: as §2

rice = test: Test B flooded paddy test; assay type: in vivo, Oryza sativa; details: 1000 g ai/ha, visual rating, scale 0 to 100 (0 no effect, 100 complete control), 13 to 15 days
Procedure: as §2

[6] = tested on: small flower umbrella sedge; test: Test B flooded paddy test; assay type: in vivo, Cyperus difformis; details: 1000 g ai/ha, visual rating, scale 0 to 100 (0 no effect, 100 complete control), 13 to 15 days
Procedure: as §2

ducksalad = test: Test B flooded paddy test; assay type: in vivo, Heteranthera limosa; details: 1000 g ai/ha, visual rating, scale 0 to 100 (0 no effect, 100 complete control), 13 to 15 days
Procedure: as §2

barnyardgrass [7] = test: Test B flooded paddy test; assay type: in vivo, Echinochloa crus-galli; details: 1000 g ai/ha, visual rating, scale 0 to 100 (0 no effect, 100 complete control), 13 to 15 days
Procedure: as §2

barnyardgrass [8] = test: Test A pre-/postemergence herbicide test; assay type: in vivo, Echinochloa crus-galli
Description: (§3) Seeds of plant species selected from barnyardgrass (Echinochloa crus-galli (L.) Beauv.), downy bromegrass (Bromus tectorum L.), large crabgrass (Digitaria sanguinalis (L.) Scop.), giant foxtail (Setaria faberi Herrm.), morningglory (Ipomoea spp.), redroot pigweed (Amaranthus retroflexus L.) and velvetleaf (Abutilon theophrasti Medik.) were planted into a sandy loam soil and treated preemergence with a directed soil spray using test chemicals formulated in a non-phytotoxic solvent mixture which included a surfactant. At the same time plants selected from these species were also treated postemergence by spraying to runoff with test chemicals formulated.
(§4) Plants ranged in height from 2 to 10 cm and were in the one- to two-leaf stage for the postemergence treatment. Treated plants and untreated controls were maintained in a greenhouse for approximately ten days, after which time all treated plants were compared to untreated controls and visually evaluated for injury. Plant response ratings, summarized in Table A, are based on a 0 to 100 scale where 0 is no effect and 100 is complete control. A dash (-) response means no test results.

large crabgrass [9] = test: Test A pre-/postemergence herbicide test; assay type: in vivo, Digitaria sanguinalis
Description: as §3, §4

giant foxtail [10] = test: Test A pre-/postemergence herbicide test; assay type: in vivo, Setaria faberi
Description: as §3, §4

morningglory [11] = test: Test A pre-/postemergence herbicide test; assay type: in vivo, Ipomoea spp.
Description: as §3, §4

redroot pigweed = test: Test A pre-/postemergence herbicide test; assay type: in vivo, Amaranthus retroflexus
Description: as §3, §4

velvetleaf [12] = test: Test A pre-/postemergence herbicide test; assay type: in vivo, Abutilon theophrasti
Description: as §3, §4

[13] = Postemergence, visual rating after 13 to 15 days, scale 0 (no effect) to 100 (complete control)
[14] = Postemergence, 500 g ai/ha, 0 to 100 scale, 0 no effect, 100 complete control
[15] = Postemergence, 2000 g ai/ha, 0 to 100 scale, 0 no effect, 100 complete control
[16] = Preemergence, 500 g ai/ha, visual rating, 0 to 100 scale (0 no effect, 100 complete control)
[17] = Preemergence, 2000 g ai/ha, visual rating, 0 to 100 scale (0 no effect, 100 complete control)

With `CCNC(=O)c1cccc(NC(=O)c2cc(C(C)(C)C)nn2CC(C)C)c1` [Compound 42] the “Plant response rating, Barnyardgrass” value (barnyardgrass [1]; [13]) was 20, the “Barnyardgrass plant response rating” value (barnyardgrass [1]; Preemergence, scale 0 to 100) was 30 and the “Plant response rating, Surinam Grass” value (Surinam grass; [13]) was 20. For the same compound, the “Surinam Grass plant response rating” value (Surinam grass; Preemergence, scale 0 to 100) was 20, the “Plant response rating, Cocklebur” value (cocklebur; [13]) was 20 and the “Cocklebur plant response rating” value (cocklebur; Preemergence, scale 0 to 100) was 0. The “Plant response rating, Corn” value (corn; [13]) was 20, the “Corn plant response rating” value (corn; Preemergence, scale 0 to 100) was 0 and the “Plant response rating, Crabgrass, Large” value (large crabgrass [2]; [13]) was 70. The “Crabgrass, Large plant response rating” value (large crabgrass [2]; Preemergence, scale 0 to 100) was 70, the “Plant response rating, Foxtail, Giant” value (giant foxtail [3]; [13]) was 10 and the “Foxtail, Giant plant response rating” value (giant foxtail [3]; Preemergence, scale 0 to 100) was 10. For the same compound, the “Plant response rating, Lambsquarters” value (lambsquarters; [13]) was 70, the “Lambsquarters plant response rating” value (lambsquarters; Preemergence, scale 0 to 100) was 80 and the “Plant response rating, Morningglory” value (morningglory [4]; [13]) was 50. For the same compound, the “Morningglory plant response rating” value (morningglory [4]; Preemergence, scale 0 to 100) was 10, the “Plant response rating, Pigweed” value (pigweed; [13]) was 70 and the “Pigweed plant response rating” value (pigweed; Preemergence, scale 0 to 100) was 40. For the same compound, the “Plant response rating, Velvetleaf” value (velvetleaf [5]; [13]) was 60, the “Velvetleaf plant response rating” value (velvetleaf [5]; Preemergence, scale 0 to 100) was 10 and the “Plant response rating, Blackgrass” value (blackgrass) was 10. For the same compound, the “Plant response rating, Wheat” value (wheat) was 20, the “Plant response rating, Oat, Wild” value (wild oat) was 20 and the “Rice plant response rating” value (rice) was 0. For the same compound, the “Sedge, Umbrella plant response rating” value [6] was 50, the “Ducksalad plant response rating” value (ducksalad) was 50 and the “Barnyardgrass plant response rating” value (barnyardgrass [7]) was 0.

For `Cn1nc(C(C)(C)C)cc1C(=O)Nc1cccc2c1CCCC2=NO` [Compound 116], the “Barnyardgrass plant response rating” value (barnyardgrass [8]; [14]) was 0, the “Plant response rating, Barnyardgrass” value (barnyardgrass [8]; [15]) was 25 and the “Barnyardgrass plant response rating” value (barnyardgrass [8]; [16]) was 35. For the same compound, the “Barnyardgrass plant response rating” value (barnyardgrass [8]; [17]) was 70, the “Crabgrass, Large plant response rating” value (large crabgrass [9]; [14]) was 0 and the “Plant response rating, Crabgrass, Large” value (large crabgrass [9]; [15]) was 10. For the same compound, the “Crabgrass, Large plant response rating” value (large crabgrass [9]; [16]) was 45, the “Crabgrass, Large plant response rating” value (large crabgrass [9]; [17]) was 80 and the “Foxtail, Giant plant response rating” value (giant foxtail [10]; [14]) was 0. For the same compound, the “Plant response rating, Foxtail, Giant” value (giant foxtail [10]; [15]) was 0, the “Foxtail, Giant plant response rating” value (giant foxtail [10]; [16]) was 20 and the “Foxtail, Giant plant response rating” value (giant foxtail [10]; [17]) was 35. The “Morningglory plant response rating” value (morningglory [11]; [14]) was 0, the “Plant response rating, Morningglory” value (morningglory [11]; [15]) was 0 and the “Morningglory plant response rating” value (morningglory [11]; [16]) was 0. The “Morningglory plant response rating” value (morningglory [11]; [17]) was 10, the “Pigweed plant response rating” value (redroot pigweed; [14]) was 0 and the “Plant response rating, Pigweed” value (redroot pigweed; [15]) was 0. For the same compound, the “Pigweed plant response rating” value (redroot pigweed; [16]) was 0, the “Pigweed plant response rating” value (redroot pigweed; [17]) was 0 and the “Velvetleaf plant response rating” value (velvetleaf [12]; [14]) was 0. For the same compound, the “Plant response rating, Velvetleaf” value (velvetleaf [12]; [15]) was 0, the “Velvetleaf plant response rating” value (velvetleaf [12]; [16]) was 0 and the “Velvetleaf plant response rating” value (velvetleaf [12]; [17]) was 0.
